Converted amounts (≈) assume the structure as drawn. The source made the active and inactive calls. No cut-off for these calls is given here. Numbered stars: 1 amine (or outer) side, 2 acyl side, 3 side chain; on linkers, the order of the positions; unused ones are H or OH. Bridge positions count the residues as written; N and C are the ends. Square brackets hold non-standard residues; d marks the D form. Peptide text beside a SMILES is read from it. * marks the point of attachment. hTyr(3S-OH,4S-OH,3'-OSO3H) = N[C@H](C(=O)O)[C@H](O)[C@@H](O)c1ccc(O)c(OS(=O)(=O)O)c1; pTerphenylCO(4''-OnC5H11) = CCCCCOc1ccc(-c2ccc(-c3ccc(C(=O)*)cc3)cc2)cc1; Orn(4R-OH,5R-OH) = O=C([C@H](C[C@@H](O)[C@@H](O)N[*:3])N[*:1])[*:2]; hTyr(3S-OH,4S-OH) = N[C@H](C(=O)O)[C@H](O)[C@@H](O)c1ccc(O)cc1; Pro(3S-OH,4S-Me) = C[C@H]1CN[C@H](C(=O)O)[C@H]1O; X1 = CCCCCOc1ccc(-c2cc(-c3ccc(C(=O)*)cc3)no2)cc1; Gln(3R-OH) = NC(=O)C[C@@H](O)[C@H](N)C(=O)O; Hyp = O=C(O)[C@@H]1C[C@@H](O)CN1
Key:
Candida orthopsilosis [1] = assay: Antifungal activity against Candida orthopsilosis clinical isolate bloodstream form assessed as time required for 99.9% reduction in fungal growth at 0.25 mg/L by time-kill assay; format: functional
Candida orthopsilosis [2] = assay: Antifungal activity against Candida orthopsilosis clinical isolate bloodstream form assessed as time required for 99.9% reduction in fungal growth at 1 mg/L by time-kill assay; format: functional
Candida orthopsilosis [3] = assay: Antifungal activity against Candida orthopsilosis clinical isolate bloodstream form assessed as time required for 99.9% reduction in fungal growth at 16 mg/L by time-kill assay; format: functional
Candida orthopsilosis [4] = assay: Antifungal activity against Candida orthopsilosis clinical isolate bloodstream form assessed as time required for 99.9% reduction in fungal growth at 32 mg/L by time-kill assay; format: functional
Candida metapsilosis [5] = assay: Antifungal activity against Candida metapsilosis clinical isolate bloodstream form assessed as time required for 50% reduction in fungal growth at 32 mg/L by time-kill assay; format: functional
Candida metapsilosis [6] = assay: Antifungal activity against Candida metapsilosis clinical isolate bloodstream form assessed as time required for 90% reduction in fungal growth at 1 mg/L by time-kill assay; format: functional
Candida metapsilosis [7] = assay: Antifungal activity against Candida metapsilosis clinical isolate bloodstream form assessed as time required for 90% reduction in fungal growth at 32 mg/L by time-kill assay; format: functional
Candida metapsilosis [8] = assay: Antifungal activity against Candida metapsilosis clinical isolate bloodstream form assessed as time required for 99% reduction in fungal growth at 1 mg/L by time-kill assay; format: functional
Candida metapsilosis [9] = assay: Antifungal activity against Candida metapsilosis clinical isolate bloodstream form assessed as time required for 99% reduction in fungal growth at 32 mg/L by time-kill assay; format: functional
Candida metapsilosis [10] = assay: Antifungal activity against Candida metapsilosis clinical isolate bloodstream form assessed as time required for 99.9% reduction in fungal growth at 4 mg/L by time-kill assay; format: functional
Candida metapsilosis [11] = assay: Antifungal activity against Candida metapsilosis clinical isolate bloodstream form assessed as time required for 99.9% reduction in fungal growth at 16 mg/L by time-kill assay; format: functional
Candida metapsilosis [12] = assay: Antifungal activity against Candida metapsilosis clinical isolate bloodstream form assessed as time required for 99.9% reduction in fungal growth at 32 mg/L by time-kill assay; format: functional
Candida parapsilosis [13] = assay: Antifungal activity against Candida parapsilosis clinical isolate bloodstream form assessed as time required for 50% reduction in fungal growth at 4 mg/L by time-kill assay; format: functional
Candida parapsilosis [14] = assay: Antifungal activity against Candida parapsilosis clinical isolate bloodstream form assessed as time required for 50% reduction in fungal growth at 16 mg/L by time-kill assay; format: functional
Candida parapsilosis [15] = assay: Antifungal activity against Candida parapsilosis clinical isolate bloodstream form assessed as time required for 90% reduction in fungal growth at 0.25 mg/L by time-kill assay; format: functional
Candida parapsilosis [16] = assay: Antifungal activity against Candida parapsilosis clinical isolate bloodstream form assessed as time required for 90% reduction in fungal growth at 1 mg/L by time-kill assay; format: functional
Candida parapsilosis [17] = assay: Antifungal activity against Candida parapsilosis clinical isolate bloodstream form assessed as time required for 90% reduction in fungal growth at 16 mg/L by time-kill assay; format: functional
Candida parapsilosis [18] = assay: Antifungal activity against Candida parapsilosis clinical isolate bloodstream form assessed as time required for 99% reduction in fungal growth at 0.25 mg/L by time-kill assay; format: functional
Candida parapsilosis [19] = assay: Antifungal activity against Candida parapsilosis clinical isolate bloodstream form assessed as time required for 99% reduction in fungal growth at 1 mg/L by time-kill assay; format: functional
Candida parapsilosis [20] = assay: Antifungal activity against Candida parapsilosis clinical isolate bloodstream form assessed as time required for 99% reduction in fungal growth at 4 mg/L by time-kill assay; format: functional
Candida parapsilosis [21] = assay: Antifungal activity against Candida parapsilosis clinical isolate bloodstream form assessed as time required for 99% reduction in fungal growth at 16 mg/L by time-kill assay; format: functional
Candida parapsilosis [22] = assay: Antifungal activity against Candida parapsilosis clinical isolate bloodstream form assessed as time required for 99% reduction in fungal growth at 32 mg/L by time-kill assay; format: functional
Candida parapsilosis [23] = assay: Antifungal activity against Candida parapsilosis clinical isolate bloodstream form assessed as time required for 99.9% reduction in fungal growth at 4 mg/L by time-kill assay; format: functional
Candida parapsilosis [24] = assay: Antifungal activity against Candida parapsilosis clinical isolate bloodstream form assessed as time required for 99.9% reduction in fungal growth at 16 mg/L by time-kill assay; format: functional
Candida parapsilosis [25] = assay: Antifungal activity against Candida parapsilosis clinical isolate bloodstream form assessed as time required for 99.9% reduction in fungal growth at 32 mg/L by time-kill assay; format: functional
Candida orthopsilosis [26] = assay: Fungicidal activity against Candida orthopsilosis isolate CP-131 bloodstream form by CLSI method; format: functional; details: Lodderomyces orthopsilosis
Candida orthopsilosis [27] = assay: Fungicidal activity against Candida orthopsilosis isolate CP-150 bloodstream form by CLSI method; format: functional; details: Lodderomyces orthopsilosis
Candida orthopsilosis [28] = assay: Fungicidal activity against Candida orthopsilosis isolate ATC194 bloodstream form by CLSI method; format: functional; details: Lodderomyces orthopsilosis, isolate ATC-194
Candida metapsilosis [29] = assay: Fungicidal activity against Candida metapsilosis isolate CP-133 bloodstream form by CLSI method; format: functional; details: Lodderomyces metapsilosis
Candida parapsilosis [30] = assay: Fungicidal activity against Candida parapsilosis isolate CP-301 bloodstream form by CLSI method; format: functional; details: Lodderomyces parapsilosis
Candida parapsilosis [31] = assay: Fungicidal activity against Candida parapsilosis ATCC 22019 bloodstream form by CLSI method; format: functional; details: Lodderomyces parapsilosis
Candida parapsilosis [32] = assay: Antifungal activity against Candida parapsilosis clinical isolate bloodstream form assessed as induction of fungal killing rate at 0.03 to 32 mg/L measured at 6 hrs by time-kill assay; format: functional, organism-based
Candida metapsilosis [33] = assay: Antifungal activity against Candida metapsilosis clinical isolate bloodstream form assessed as induction of fungal killing rate at 0.03 to 32 mg/L measured at 6 hrs by time-kill assay; format: functional, organism-based
Candida orthopsilosis [34] = assay: Antifungal activity against Candida orthopsilosis clinical isolate bloodstream form assessed as mild induction of fungal death at 0.03 to 32 mg/L after 6 hrs by time-kill assay; format: functional, organism-based
Candida orthopsilosis [35] = assay: Antifungal activity against Candida orthopsilosis clinical isolate bloodstream form assessed as time required for 50% reduction in fungal growth at 0.25 mg/L by time-kill assay; format: functional
Candida orthopsilosis [36] = assay: Antifungal activity against Candida orthopsilosis clinical isolate bloodstream form assessed as time required for 50% reduction in fungal growth at 4 mg/L by time-kill assay; format: functional
Candida orthopsilosis [37] = assay: Antifungal activity against Candida orthopsilosis clinical isolate bloodstream form assessed as time required for 50% reduction in fungal growth at 16 mg/L by time-kill assay; format: functional
Candida orthopsilosis [38] = assay: Antifungal activity against Candida orthopsilosis clinical isolate bloodstream form assessed as time required for 90% reduction in fungal growth at 0.25 mg/L by time-kill assay; format: functional
Candida orthopsilosis [39] = assay: Antifungal activity against Candida orthopsilosis clinical isolate bloodstream form assessed as time required for 90% reduction in fungal growth at 1 mg/L by time-kill assay; format: functional
Candida orthopsilosis [40] = assay: Antifungal activity against Candida orthopsilosis clinical isolate bloodstream form assessed as time required for 90% reduction in fungal growth at 32 mg/L by time-kill assay; format: functional
Candida orthopsilosis [41] = assay: Antifungal activity against Candida orthopsilosis clinical isolate bloodstream form assessed as time required for 99% reduction in fungal growth at 4 mg/L by time-kill assay; format: functional
Candida orthopsilosis [42] = assay: Antifungal activity against Candida orthopsilosis clinical isolate bloodstream form assessed as time required for 99% reduction in fungal growth at 16 mg/L by time-kill assay; format: functional
Candida orthopsilosis [43] = assay: Antifungal activity against Candida orthopsilosis clinical isolate bloodstream form assessed as time required for 99% reduction in fungal growth at 32 mg/L by time-kill assay; format: functional

Structure (SMILES): CCCCCOc1ccc(-c2ccc(-c3ccc(C(=O)N[C@H]4C[C@@H](O)[C@@H](O)NC(=O)[C@@H]5[C@@H](O)[C@@H](C)CN5C(=O)[C@H]([C@@H](C)O)NC(=O)[C@H]([C@H](O)[C@@H](O)c5ccc(O)cc5)NC(=O)[C@@H]5C[C@@H](O)CN5C(=O)[C@H]([C@@H](C)O)NC4=O)cc3)cc2)cc1 [ANIDULAFUNGIN] ({pTerphenylCO(4''-OnC5H11)}-[Orn(4R-OH,5R-OH)]T[Hyp][hTyr(3S-OH,4S-OH)]T[Pro(3S-OH,4S-Me)]; lactam 1-C)
- Time (Candida orthopsilosis [1]): >48 h
- Time (Candida orthopsilosis [2]): >48 h
- Time (Candida orthopsilosis [3]): 18.73 h
- Time (Candida orthopsilosis [4]): 14.72 h
- Time (Candida metapsilosis [5]): 1.41 h
- Time (Candida metapsilosis [6]): 5.22 h
- Time (Candida metapsilosis [7]): 4.69 h
- Time (Candida metapsilosis [8]): 10.44 h
- Time (Candida metapsilosis [9]): 9.37 h
- Time (Candida metapsilosis [10]): 23.83 h
- Time (Candida metapsilosis [11]): 15.03 h
- Time (Candida metapsilosis [12]): 14.06 h
- Time (Candida parapsilosis [13]): 26.41 h
- Time (Candida parapsilosis [14]): 7.84 h
- Time (Candida parapsilosis [15]): inactive
- Time (Candida parapsilosis [16]): inactive
- Time (Candida parapsilosis [17]): 26.04 h
- Time (Candida parapsilosis [18]): inactive
- Time (Candida parapsilosis [19]): inactive
- Time (Candida parapsilosis [20]): >48 h
- Time (Candida parapsilosis [21]): >48 h
- Time (Candida parapsilosis [22]): 27.89 h
- Time (Candida parapsilosis [23]): >48 h
- Time (Candida parapsilosis [24]): >48 h
- Time (Candida parapsilosis [25]): 41.84 h
- MIC (Candida orthopsilosis [26]): 0.25 µg/mL (≈ 0.219 µM)
- MIC (Candida orthopsilosis [27]): 0.25 µg/mL (≈ 0.219 µM)
- MIC (Candida orthopsilosis [28]): 0.12 µg/mL (≈ 0.105 µM)
- MIC (Candida metapsilosis [29]): 0.06 µg/mL (≈ 0.0526 µM)
- MIC (Candida parapsilosis [30]): 1 µg/mL (≈ 0.877 µM)
- MIC (Candida parapsilosis [31]): 1 µg/mL (≈ 0.877 µM)
- Activity (Candida parapsilosis [32]): inactive
- Activity (Candida metapsilosis [33]): inactive
- Activity (Candida orthopsilosis [34]): Active
- Time (Candida orthopsilosis [35]): 17.4 h
- Time (Candida orthopsilosis [36]): 2.73 h
- Time (Candida orthopsilosis [37]): 1.88 h
- Time (Candida orthopsilosis [38]): >48 h
- Time (Candida orthopsilosis [39]): 21.14 h
- Time (Candida orthopsilosis [40]): 4.91 h
- Time (Candida orthopsilosis [41]): 18.17 h
- Time (Candida orthopsilosis [42]): 12.48 h
- Time (Candida orthopsilosis [43]): 9.81 h

Structure (SMILES): CCCCCOc1ccc(-c2cc(-c3ccc(C(=O)N[C@H]4C[C@@H](O)[C@@H](O)NC(=O)[C@@H]5[C@@H](O)[C@@H](C)CN5C(=O)[C@H]([C@H](O)CC(N)=O)NC(=O)[C@H]([C@H](O)[C@@H](O)c5ccc(O)c(OS(=O)(=O)O)c5)NC(=O)[C@@H]5C[C@@H](O)CN5C(=O)[C@H]([C@@H](C)O)NC4=O)cc3)no2)cc1 [MICAFUNGIN] (X1-[Orn(4R-OH,5R-OH)]T[Hyp][hTyr(3S-OH,4S-OH,3'-OSO3H)][Gln(3R-OH)][Pro(3S-OH,4S-Me)]; lactam 1-C)
- Time (Candida orthopsilosis [1]): >48 h
- Time (Candida orthopsilosis [2]): 30.4 h
- Time (Candida orthopsilosis [3]): 13.76 h
- Time (Candida orthopsilosis [4]): 15.34 h
- Time (Candida metapsilosis [5]): 1.43 h
- Time (Candida metapsilosis [6]): 10.15 h
- Time (Candida metapsilosis [7]): 4.76 h
- Time (Candida metapsilosis [8]): 20.3 h
- Time (Candida metapsilosis [9]): 9.53 h
- Time (Candida metapsilosis [10]): 17.68 h
- Time (Candida metapsilosis [11]): 14.41 h
- Time (Candida metapsilosis [12]): 14.29 h
- Time (Candida parapsilosis [13]): 17.6 h
- Time (Candida parapsilosis [14]): 9.5 h
- Time (Candida parapsilosis [15]): inactive
- Time (Candida parapsilosis [16]): inactive
- Time (Candida parapsilosis [17]): 31.55 h
- Time (Candida parapsilosis [18]): inactive
- Time (Candida parapsilosis [19]): inactive
- Time (Candida parapsilosis [20]): >48 h
- Time (Candida parapsilosis [21]): >48 h
- Time (Candida parapsilosis [22]): >48 h
- Time (Candida parapsilosis [23]): >48 h
- Time (Candida parapsilosis [24]): >48 h
- Time (Candida parapsilosis [25]): >48 h
- MIC (Candida orthopsilosis [26]): 0.25 µg/mL (≈ 0.197 µM)
- MIC (Candida orthopsilosis [27]): 0.25 µg/mL (≈ 0.197 µM)
- MIC (Candida orthopsilosis [28]): 0.5 µg/mL (≈ 0.394 µM)
- MIC (Candida metapsilosis [29]): 0.12 µg/mL (≈ 0.0945 µM)
- MIC (Candida parapsilosis [30]): 1 µg/mL (≈ 0.787 µM)
- MIC (Candida parapsilosis [31]): 0.5 µg/mL (≈ 0.394 µM)
- Activity (Candida parapsilosis [32]): inactive
- Activity (Candida metapsilosis [33]): inactive
- Activity (Candida orthopsilosis [34]): Active
- Time (Candida orthopsilosis [35]): 15.93 h
- Time (Candida orthopsilosis [36]): 1.66 h
- Time (Candida orthopsilosis [37]): 1.38 h
- Time (Candida orthopsilosis [38]): >48 h
- Time (Candida orthopsilosis [39]): 10.13 h
- Time (Candida orthopsilosis [40]): 5.11 h
- Time (Candida orthopsilosis [41]): 11.06 h
- Time (Candida orthopsilosis [42]): 9.17 h
- Time (Candida orthopsilosis [43]): 10.22 h
